How the values were obtained:
[1] = system: VSV (vesicular stomatitis virus); format: cell-based; details: 0.1% in tissue cultures; A549, GMK and fibroblasts; Figure 2
[2] = Admixture of ester to distilled water and amino acid solution (Vamin N), 5 days at +5°C; format: physicochemical
Protocol: 6 g of egg-yolk phospholipids were dissolved in 50 g of 5-methyl-3-oxo-hexanoic acid ethyl ester and 4-methyl-3-oxo-pentanoic acid ethyl ester respectively, while applying and stirring the system. When clear solutions had been obtained, 34 g of absolute alcohol (about 99%) were added, corresponding to the least quantity required for the solutions to remain stable in cold conditions without precipitation of phospholipids. These solutions were autoclaved at +117°C for 20 minutes. Aliquots of these solutions were taken (0.2; 1.0; 3.0 and 5% calculated on ethyl ester) and added respectively to distilled water and to an amino acid solution with a concentration of 7.18% and 9.4 g nitrogen/l (Vamin^R N). Controls were run, in which a pure product of 5-methyl-3-oxo-hexanoic acid ethyl ester and 4-methyl-3-oxo-pen tanoic acidethyl ester respectively were added to distilled water and amino acid solution respectively. All samples were shaken for 10 seconds in a shaking apparatus of the type Whirlimixer^R. The samples were then permitted to stand for 5 calender days in cold conditions (+5°C) and were read-off daily under a daylight lamp, observations being made as to the acceptable quality of the resultant emulsions (visually) or to ascertain the presence or absence of oil droplets on the surface of the emulsions, or separation thereof. […]

[3] = system: Escherichia coli ATCC 8739; experiment: Microorganism count in ester emulsions diluted with phosphate buffer, albumin solution or TSB (Example 16); format: cell-based
Protocol: The emulsions contained egg-yolk phospholipid 1,2% and sterile water in addition to ester. The emulsions were prepared aseptically, by emulsifying sterile-filtered ester with a sterilized dispersion of egg-yolk phospholipids.
Aliquots of these emulsions were diluted at a ratio of 1 to 10 with phosphate buffer (0.01 M, pH=7.0), seruma albumin solution 20% and Tryptone soya broth (TSB) respectively. Escherichia coli ATCC 8739 were added to the emulsions. The emulsions were then incubated for 20 hours at +37°C. The microorganism count was carried out after 1-5 minutes, 2 hours and 20 hours, in the manner described in microbiological literature. Parallel with the above tests, there was made a control of phosphate buffer and TSB with additions of Escherichia coli ATCC 8739. The latter substrate was tested to ascertain whether or not the microorganisms were viable. […] The starting concentration was about 10⁴. In the samples containing 4-methyl-3-oxo-pentanoic acid ethyl ester, the combination with phosphate buffer was 0 after 5 minutes, 0 after 2 hours and 0 after 20 hours. In the combination with 20% albumin solution, the microorganism count was 0 after 5 minutes, no count was taken after 2 hours, and 0 after 20 hours. […], the count in the combination with TSB was 0, no count was taken after 2 hours, and 0 after 20 hours.
In the samples containing 5-methyl-3-oxo-hexanoic acid ethyl ester, the count in the combination with phosphate buffer was 10 after 5 minutes, 0 after 2 hours, and 0 after 20 hours. The combination with 20% albumin solution was 10² after 5 minutes, no count was taken after 2 hours, and 0 after 20 hours. In the combination with TSB, the count was 10 after 5 minutes, no count was taken after 2 hours, and 0 after 20 hours. […] All microorganisms were eliminated within 20 hours by both esters at the same low concentration.

[4] = set-up: species or system rabbits; details: rabbit, in vivo
Protocol: Two rabbits weighing between 3.0-3.5 kg were infused intravenously (10 ml/kg body weight) with an emulsion containing 50 mg/ml of 4-methyl-3-oxo-pentanoic acid ethyl ester over a period of 5 minutes. Each rabbit received a dosage of 1.5-1.8 g over a 5 minute period. The emulsion was prepared aseptically, by emusifying sterile-filtered ester with a sterilized dispersion of egg-yolk phospholipids.
Three rabbits weighing 3.0-3.3 kg were infused intravenously (10 ml/kg body weight) with an emulsion containing 30 mg/ml of 4-methyl-3-oxo-pentanoic acid ethyl ester over a period of from 4 to 7 minutes. Each rabbit received a dosage of 0.9-1.05 g. The emulsion was prepared aseptically, by emulsifying sterile-filtered ester with a sterilized dispersion of egg-yolk phospholipids. […] The third rabbit remained normal during the whole of the infusion period. The two unconscious rabbits awakened about 2 minutes after completion of the infusion, and thereafter acted quite normally.

[5] = 20% emulsion diluted 1 to 10 with phosphate buffer, after 5 minutes, starting concentration about 10⁴
[6] = diluted 1 to 10 with 20% albumin solution, after 20 hours
[7] = diluted 1 to 10 with TSB, after 20 hours
[8] = diluted 1 to 10 with phosphate buffer, after 2 hours
[9] = diluted 1 to 10 with phosphate buffer, after 20 hours

Compound | suppression of replication of VSV [1] | concentration to which the ester can be mixed (accepted samples) ([2]; free pure ester in amino acid solution (Vamin N)) | concentration to which the ester can be mixed (accepted samples) ([2]; free pure ester in distilled water) | microorganism count [3, 5] | microorganism count [3, 6] | microorganism count ([3]; diluted 1 to 10 with TSB, after 5 minutes) | microorganism count [3, 7] | microorganism count [3, 8] | microorganism count [3, 9] | time after completion of the infusion until awakening [4] | time after completion of the infusion until consciousness regained [4] | microorganism count ([3]; diluted 1 to 10 with 20% albumin solution, after 5 minutes) | microorganism count ([3]; diluted 1 to 10 with TSB, after 4 hours)
CCOC(=O)CC(=O)CC(C)C [5-methyl-3-oxo-hexanoic acid ethyl ester] | replication can be inhibited | 0.2% | 0.2% | 10 | 0 | 10 | 0 | 0 | 0 | – | – | – | –
CCOC(=O)CC(=O)C(C)C [4-methyl-3-oxo-pentanoic acid ethyl ester] | – | – | – | 0 | 0 | – | 0 | 0 | 0 | about 2 minutes | about 2 minutes | 0 | 0

From patent EP0366632A1, “Alternative energy substrates” (priority 1988, dated 1990)
